According to patent publication US11021470B2, “2-substituted quinazoline compounds comprising a substituted heterocyclic group and methods of use thereof” (Araxes Pharma LLC, priority 2015, dated 2021):

Target: T1, KRAS G12C 1-169, his-tagged protein, GDP-loaded (Homo sapiens, UniProt P01116, G12C)
T1 construct: KRAS G12C 1-169, his-tagged protein, GDP-loaded
Experiment: KRAS G12C covalent binding (% modification) by mass spectrometry, ten or three minute incubation
Conditions: covalent binding to KRAS G12C, % modification after a three minute incubation period
Procedure: Test compounds were prepared as 10 mM stock solutions in DMSO (Fisher cat #BP-231-100). KRAS G12C 1-169, his-tagged protein, GDP-loaded was diluted to […] in buffer (20 mM Hepes, 150 mM NaCl, 1 mM MgCl2). Compounds were tested for activity as follows:
Compounds were diluted to 50× final test concentration in DMSO in 96-well storage plates. Compound stock solutions were vortexed before use and observed carefully for any sign of precipitation. Dilutions were as follow: • For 100 μM final compound concentration, compounds were diluted to 5000 μM (5 μl 10 mM compound stock+5 μl DMSO and mixed well by pipetting. • For 30 μM final compound concentration, compounds were diluted to 1500 μM (3 μl 10 mM compound stock+17 μl DMSO) and mixed well by pipetting. • For 10 μM final compound concentration, compounds were diluted to 500 μM (2 μl 10 mM compound stock+38 μl DMSO) and mixed well by pipetting. 49 μl of the stock protein solution was added to each well of a 96-well PCR plate (Fisher cat #1423027). 1 μl of the diluted 50× compounds were added to appropriate wells in the PCR plate using 12-channel pipettor. Reactions were mixed carefully and thoroughly by pipetting up/down with a 200 μl multi-channel pipettor. […] 5 μl of 2% formic acid (Fisher cat #A117) in DI H2O was then added to each well followed by mixing with a pipette. The plate was then resealed with aluminum seal and stored on dry ice until analyzed as described below.
The above described assays were analyzed by mass spectrometry according to one of the following two procedures:
The MS instrument is set to positive polarity, 2 GHz resolution, and low mass (1700) mode and allowed to equilibrate for 30 minutes. The instrument is then calibrated, switched to acquisition mode and the appropriate method loaded.
After another 30 minute equilibration time, a blank batch (i.e., buffer) is run to ensure equipment is operating properly. The samples are thawed at 37° C. for 10 minutes, briefly centrifuged, and transfer to the bench top. Wells A1 and H12 are spiked with 1 μL 500 μM internal standard peptide, and the plates centrifuged at 2000×g for 5 minutes. The method is then run and masses of each individual well recorded.
The masses (for which integration data is desired) for each well are pasted into the platemap and exported from the analysis. Masses for the internal standards are exported as well. The data at 50 ppm is extracted for the +19 charge state, and identity of well A1 is assigned using the internal standard spike and integrated. Peak data is exported as a TOF list and the above steps are repeated individually, for the +20, 21, 22, 23, 24, and 25 charge states.
The masses and peak intensities of KRAS G12C protein species were measured using a Dionex RSLCnano system (Thermo Scientific) connected to a Q Exactive Plus mass spectrometer (Thermo Scientific).
[…] of sample was each loaded onto a Aeris™ 3.6 μm WIDEPORE C4 200 Å, LC Column 50×2.1 mm column maintained at 40° C. at a flow rate of 600 μl min^−1 with […] (0.1% formic acid in acetonitrile). The liquid chromatography conditions were 20% solvent B for 1 min, 20% to 60% solvent B for 1.5 min, 60% to 90% solvent for 0.5 min, 90% solvent B for 0.2 min, 90% to 20% solvent B for 0.2 min, and then equilibrated for 1.6 min before the following sample injection. The flow rate was maintained at 600 μl min^−1 throughout the sample analysis.
The mass spectrometer was operated in profile mode at a resolution of 17500, 5 microscans, using 50 msec max injection time and an AGC target of 1e6, and a full mass range from 800-1850 m/z was recorded. The HCD trapping gas was optimized for maximum sensitivity for intact proteins. The ionization method was electrospray ionization, which used a spray voltage of 4 kV, sheath gas flow set to 50 au, auxiliary gas flow set to 10 au and sweep gas flow set to 1 au. […]

**Q.** With `C=CC(=O)N1C[C@H](C)N(c2nc(N3CC(N(C)C)C3)nc3c(F)c(-c4c[nH]c5c(F)cccc45)c(Cl)cc23)C[C@H]1C` [Compound 294, 1-((2R,5S)-4-(6-chloro-2-(3-(dimethylamino)azetidin-1-yl)-8-fluoro-7-(7-fluoro-1H-indol-3-yl)quinazolin-4-yl)-2,5-dimethylpiperazin-1-yl)prop-2-en-1-one] as the molecule, how does the Binding % read?
**A.** + (+ indicates binding activity greater than 0% and up to 50%)

**Q.** How did the Binding % turn out when `C=CC(=O)N1C[C@H](C)N(c2nc(OCCc3cncn3C)nc3c(F)c(-c4c(O)cccc4F)c(Cl)cc23)C[C@H]1C` (atropisomer, axis not shown) [Compound 284, 1-((2R,5S)-4-(6-chloro-8-fluoro-7-((S)-2-fluoro-6-hydroxyphenyl)-2-(2-(1-methyl-1H-imidazol-5-yl)ethoxy)quinazolin-4-yl)-2,5-dimethylpiperazin-1-yl)prop-2-en-1-one] was run?
**A.** +++ (+++ indicates binding activity greater than 90%)

**Q.** With `C=CC(=O)N1C[C@H](C)N(c2nc(OCCc3cn(C(C)C)cn3)nc3c(F)c(-c4c(O)cccc4F)c(Cl)cc23)C[C@H]1C` [Compound 302, 1-((2R,5S)-4-(6-chloro-8-fluoro-7-(2-fluoro-6-hydroxyphenyl)-2-(2-(1-isopropyl-1H-imidazol-4-yl)ethoxy)quinazolin-4-yl)-2,5-dimethylpiperazin-1-yl)prop-2-en-1-one] as the molecule, how does the Binding % read?
**A.** +++ (+++ indicates binding activity greater than 90%)

**Q.** For `C=CC(=O)N1C[C@H](C)N(c2nc(OCC(C)(C)O)nc3c(F)c(-c4c(O)cccc4F)c(Cl)cc23)C[C@H]1C` [Compound 281, 1-((2R,5S)-4-(6-chloro-8-fluoro-7-(2-fluoro-6-hydroxyphenyl)-2-(2-hydroxy-2-methylpropoxy)quinazolin-4-yl)-2,5-dimethylpiperazin-1-yl)prop-2-en-1-one], which Binding % is on record?
**A.** ++ (++ indicates binding activity from 50 to 90%)

**Q.** Which Binding % does the source give for `C=CC(=O)N1C[C@@H](C)N(c2nc(N3CC(N(C)C)C3)nc3c(F)c(-c4c(O)cccc4F)c(Cl)cc23)C[C@@H]1C` [Compound 87, 1-((2S,5R)-4-(6-chloro-2-(3-(dimethylamino)azetidin-1-yl)-8-fluoro-7-(2-fluoro-6-hydroxyphenyl)quinazolin-4-yl)-2,5-dimethylpiperazin-1-yl)prop-2-en-1-one] here?
**A.** + (+ indicates binding activity greater than 0% and up to 50%)

**Q.** For `C=CC(=O)N1CCN(c2nc(OCCc3ncccn3)nc3c(F)c(-c4c(O)cccc4F)c(Cl)cc23)C[C@H]1C` (atropisomer, axis not shown) [Compound 268, 1-((R)-4-(6-chloro-8-fluoro-7-((S)-2-fluoro-6-hydroxyphenyl)-2-(2-(pyrimidin-2-yl)ethoxy)quinazolin-4-yl)-2-methylpiperazin-1-yl)prop-2-en-1-one], which Binding % is on record?
**A.** +++ (+++ indicates binding activity greater than 90%)

**Q.** How did the Binding % turn out when `C=CC(=O)N1C[C@H](C)N(c2nc(N3CC(N(C)C)C3)nc3c(F)c(-c4c(O)cccc4F)c(C(F)(F)F)cc23)C[C@H]1C` (atropisomer, axis not shown) [Compound 270, 1-((2R,5S)-4-(2-(3-(dimethylamino)azetidin-1-yl)-8-fluoro-7-((R)-2-fluoro-6-hydroxyphenyl)-6-(trifluoromethyl)quinazolin-4-yl)-2,5-dimethylpiperazin-1-yl)prop-2-en-1-one] was run?
**A.** +++ (+++ indicates binding activity greater than 90%)

**Q.** For `C=CC(=O)N1C[C@H](C)N(c2nc(N3CC(N(C)C)C3)nc3c(F)c(-c4c[nH]c5ccccc45)c(Cl)cc23)C[C@H]1C` [Compound 285, 1-((2R,5S)-4-(6-chloro-2-(3-(dimethylamino)azetidin-1-yl)-8-fluoro-7-(1H-indol-3-yl)quinazolin-4-yl)-2,5-dimethylpiperazin-1-yl)prop-2-en-1-one], which Binding % is on record?
**A.** + (+ indicates binding activity greater than 0% and up to 50%)

**Q.** `C=CC(=O)N1C[C@H](C)N(c2nc(N3CC(N(C)C)C3)nc3c(F)c(-c4c[nH]c5cccc(C)c45)c(Cl)cc23)C[C@H]1C` [Compound 291, 1-((2R,5S)-4-(6-chloro-2-(3-(dimethylamino)azetidin-1-yl)-8-fluoro-7-(4-methyl-1H-indol-3-yl)quinazolin-4-yl)-2,5-dimethylpiperazin-1-yl)prop-2-en-1-one] was tested. Which Binding % did it give?
**A.** + (+ indicates binding activity greater than 0% and up to 50%)

**Q.** For `C=CC(=O)N1C[C@H](C)N(c2nc(N3CC(N(C)C)C3)nc3c(F)c(-c4cc(O)cc5ccccc45)c(C(F)(F)F)cc23)C[C@H]1C` (atropisomer, axis not shown) [Compound 255, 1-((2R,5S)-4-(2-(3-(dimethylamino)azetidin-1-yl)-8-fluoro-7-((R)-3-hydroxynaphthalen-1-yl)-6-(trifluoromethyl)quinazolin-4-yl)-2,5-dimethylpiperazin-1-yl)prop-2-en-1-one], which Binding % is on record?
**A.** +++ (+++ indicates binding activity greater than 90%)

**Q.** Which Binding % does the source give for `C=CC(=O)N1C[C@H](C)N(c2nc(N3CC(N(C)C)C3)nc3c(F)c(-c4c(C)[nH]c5ccccc45)c(Cl)cc23)C[C@H]1C` [Compound 287, 1-((2R,5S)-4-(6-chloro-2-(3-(dimethylamino)azetidin-1-yl)-8-fluoro-7-(2-methyl-1H-indol-3-yl)quinazolin-4-yl)-2,5-dimethylpiperazin-1-yl)prop-2-en-1-one] here?
**A.** + (+ indicates binding activity greater than 0% and up to 50%)

**Q.** For `C=CC(=O)N1C[C@H](C)N(c2nc(N3CC(N(C)C)C3)nc3c(F)c(-c4c[nH]c5cccc(F)c45)c(Cl)cc23)C[C@H]1C` [Compound 290, 1-((2R,5S)-4-(6-chloro-2-(3-(dimethylamino)azetidin-1-yl)-8-fluoro-7-(4-fluoro-1H-indol-3-yl)quinazolin-4-yl)-2,5-dimethylpiperazin-1-yl)prop-2-en-1-one], which Binding % is on record?
**A.** + (+ indicates binding activity greater than 0% and up to 50%)

**Q.** How did the Binding % turn out when `C=CC(=O)N1C[C@H](C)N(c2nc(N3CC(N(C)C)C3)nc3c(F)c(-c4c(O)cccc4F)c(C(F)(F)F)cc23)C[C@H]1C` (atropisomer, axis not shown) [Compound 269, 1-((2R,5S)-4-(2-(3-(dimethylamino)azetidin-1-yl)-8-fluoro-7-((S)-2-fluoro-6-hydroxyphenyl)-6-(trifluoromethyl)quinazolin-4-yl)-2,5-dimethylpiperazin-1-yl)prop-2-en-1-one] was run?
**A.** + (+ indicates binding activity greater than 0% and up to 50%)

**Q.** With `C=CC(=O)N1C[C@H](C)N(c2nc(N3CC(N(C)C)C3)nc3c(F)c(-c4c(C)ccc5[nH]ccc45)c(Cl)cc23)C[C@H]1C` [Compound 266, 1-((2R,5S)-4-(6-chloro-2-(3-(dimethylamino)azetidin-1-yl)-8-fluoro-7-(5-methyl-1H-indol-4-yl)quinazolin-4-yl)-2,5-dimethylpiperazin-1-yl)prop-2-en-1-one] as the molecule, how does the Binding % read?
**A.** +++ (+++ indicates binding activity greater than 90%)

**Q.** With `C=CC(=O)N1C[C@H](C)N(c2nc(OCCn3ccnc3C3CC3)nc3c(F)c(-c4c(O)cccc4F)c(Cl)cc23)C[C@H]1C` (atropisomer, axis not shown) [Compound 275, 1-((2R,5S)-4-(6-chloro-2-(2-(2-cyclopropyl-1H-imidazol-1-yl)ethoxy)-8-fluoro-7-((S)-2-fluoro-6-hydroxyphenyl)quinazolin-4-yl)-2,5-dimethylpiperazin-1-yl)prop-2-en-1-one] as the molecule, how does the Binding % read?
**A.** +++ (+++ indicates binding activity greater than 90%)
